{"source": "ChEMBL document CHEMBL5518165", "about": "“M335, a novel small-molecule STING agonist activates the immune response and exerts antitumor effects” (Eur J Med Chem, 2024)", "key": {"[1]": {"test_system": "THP-1", "assay": "Upregulation of IL6 mRNA level in STING-knockout human THP-1 cells at 20 uM measured for 4 hrs by qPCR analysis", "type": "functional, cell-based"}, "[2]": {"target": "T1, Stimulator of interferon genes protein (Mus musculus) (UniProt Q3TBT3)", "T1 sequence (whole entry)": "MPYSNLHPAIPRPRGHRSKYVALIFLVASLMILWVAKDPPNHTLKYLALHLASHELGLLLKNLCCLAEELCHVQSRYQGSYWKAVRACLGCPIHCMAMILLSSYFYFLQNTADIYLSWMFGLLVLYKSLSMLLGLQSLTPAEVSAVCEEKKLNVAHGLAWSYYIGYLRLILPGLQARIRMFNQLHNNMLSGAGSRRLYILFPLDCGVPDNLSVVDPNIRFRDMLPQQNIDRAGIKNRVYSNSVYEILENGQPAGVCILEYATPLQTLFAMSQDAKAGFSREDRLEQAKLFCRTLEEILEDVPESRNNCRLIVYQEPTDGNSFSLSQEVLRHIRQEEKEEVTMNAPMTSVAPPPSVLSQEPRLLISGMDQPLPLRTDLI", "assay": "Agonist activity at STING in MEF cells assessed as STING translocation to golgi apparatus by measuring increase in red fluorescence incubated for 1 hr by laser scanning confocal microscope analysis", "type": "cell-based", "conditions": "filed as agonist"}, "[3]": {"test_system": "MC-38", "assay": "Antitumor activity against mouse MC38 cells allografted in C57/BL6 mouse assessed as increase in CD8+ T cells in tumor tissue at 300 ug, IT administered every 2 days by flow cytometry analysis (reference value: 4.10%)", "type": "functional", "conditions": "dose 300 µg"}, "[4]": {"test_system": "CT26", "assay": "Antitumor activity against mouse CT26 cells […] mouse assessed as augmentation of CD3+ T cells in spleen at 5 mg/kg, ip administered every 2 days (reference value: 13.9%)", "type": "functional"}, "[5]": {"test_system": "CT26", "assay": "Antitumor activity against mouse CT26 cells […] mouse assessed as augmentation of CD3+ T cells in spleen at 10 mg/kg, ip administered every 2 days (reference value: 13.9%)", "type": "functional"}, "[6]": {"target": "Stimulator of interferon genes protein (Homo sapiens) (UniProt Q86WV6)", "sequence (Q86WV6 whole entry)": "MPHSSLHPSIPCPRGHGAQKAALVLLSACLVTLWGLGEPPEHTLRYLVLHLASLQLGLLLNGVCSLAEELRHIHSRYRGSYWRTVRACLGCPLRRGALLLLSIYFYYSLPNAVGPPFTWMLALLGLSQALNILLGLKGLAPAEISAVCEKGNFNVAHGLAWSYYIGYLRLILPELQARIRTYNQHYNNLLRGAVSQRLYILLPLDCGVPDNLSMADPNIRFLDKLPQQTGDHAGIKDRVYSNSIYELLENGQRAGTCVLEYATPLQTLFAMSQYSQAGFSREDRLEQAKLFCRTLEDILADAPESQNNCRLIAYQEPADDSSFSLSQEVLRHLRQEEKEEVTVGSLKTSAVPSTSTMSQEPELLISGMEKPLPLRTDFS", "assay": "Agonist activity at STING in human THP-1 cells assessed as upregulation of type-1 interferon signaling pathway by gene ontology analysis", "type": "cell-based", "conditions": "filed as agonist"}, "[7]": {"target": "Stimulator of interferon genes protein (Homo sapiens) (UniProt Q86WV6)", "assay": "Agonist activity at STING in human THP-1 cells assessed as decrease in STING monomer level at 5 to 40 uM by Western blotting analysis", "type": "cell-based", "conditions": "filed as agonist, dose 5-40 µM"}, "[8]": {"target": "Stimulator of interferon genes protein (Homo sapiens) (UniProt Q86WV6)", "assay": "Agonist activity at STING in human THP-1 cells assessed as TBK1 phosphorylation at 20 uM measured for 4 hrs in presence of H-151 by Western blotting analysis", "type": "cell-based"}, "[9]": {"test_system": "Human alphaherpesvirus 1", "assay": "Antiviral activity against HSV-1-GFP infected in human THP-1 cells assessed as reduction in viral infection pre-infected with virus for 24 hrs followed by compound addition and measured after 6 hrs by flow cytometry analysis", "type": "functional, organism-based", "conditions": "dose 10-30 µM"}, "[10]": {"target": "T1, Stimulator of interferon genes protein (Mus musculus)", "assay": "Agonist activity at STING in MEF cells assessed as increase in STING oligomerization by Western blotting analysis", "type": "cell-based", "conditions": "filed as agonist"}, "[11]": {"target": "Stimulator of interferon genes protein (Homo sapiens) (UniProt Q86WV6)", "assay": "Agonist activity at STING in human THP-1 cells assessed as upregulation of IL-6/JAK/STAT3 signaling pathway by GSEA", "type": "cell-based", "conditions": "filed as agonist"}, "[12]": {"assay": "Toxicity in […] mouse allografted with mouse CT26 cells assessed as change in body weight at 5 to 20 mg/kg, ip administered every 2 days", "type": "organism-based", "conditions": "in vivo, 48 h, dose 5-20 mg/kg"}, "[13]": {"target": "Stimulator of interferon genes protein (Homo sapiens) (UniProt Q86WV6)", "assay": "Agonist activity at STING in human THP-1 cells assessed as increase in IRF3 phosphorylation at 20 uM measured for 4 hrs by Western blotting analysis", "type": "cell-based", "conditions": "filed as agonist"}, "[14]": {"test_system": "CT26", "assay": "Antitumor activity against mouse CT26 cells […] mouse assessed as augmentation of CD8+ T cells in spleen at 5 mg/kg, ip administered every 2 days (reference value: 6.99%)", "type": "functional"}, "[15]": {"target": "T1, Stimulator of interferon genes protein (Mus musculus)", "assay": "Agonist activity at STING in MEF cells assessed as STING translocation by measuring aggregation of green fluorescence incubated for 1 hr by laser scanning confocal microscope analysis", "type": "cell-based", "conditions": "filed as agonist"}, "[16]": {"target": "Stimulator of interferon genes protein (Homo sapiens) (UniProt Q86WV6)", "assay": "Binding affinity to human STING CTD assessed as change in protein denaturation temperature at 10 to 50 uM by thermal shift assay", "conditions": "filed as agonist, dose 10-50 µM"}, "[17]": {"target": "Stimulator of interferon genes protein (Homo sapiens) (UniProt Q86WV6)", "assay": "Binding affinity to STING CTD (unknown origin) at 3.125 to 200 uM by surface plasmon resonance analysis", "conditions": "filed as agonist, dose 3.125-200 µM"}, "[18]": {"target": "Stimulator of interferon genes protein (Homo sapiens) (UniProt Q86WV6)", "assay": "Agonist activity at STING in human THP-1 cells assessed as upregulation of DNA replication related genes by gene ontology analysis", "type": "cell-based", "conditions": "filed as agonist"}, "[19]": {"test_system": "MC-38", "assay": "Antitumor activity against mouse MC38 cells allografted in C57/BL6 mouse assessed as increase in CD45+ T cells in spleen at 300 ug, IT administered every 2 days by flow cytometry analysis", "type": "functional, cell-based", "conditions": "dose 300.0 µg"}, "[20]": {"test_system": "CT26", "assay": "Antitumor activity against mouse CT26 cells […] mouse assessed as augmentation of CD45+ cells in spleen at 20 mg/kg, ip administered every 2 days (reference value: 35.1%)", "type": "functional", "conditions": "time 2 day"}, "[21]": {"test_system": "CT26", "assay": "Antitumor activity against mouse CT26 cells […] mouse assessed as augmentation of CD3+ T cells in spleen at 20 mg/kg, ip administered every 2 days (reference value: 13.9%)", "type": "functional"}, "[22]": {"test_system": "Human alphaherpesvirus 1", "assay": "Antiviral activity against HSV-1-GFP infected in human THP-1 cells assessed as reduction in viral infection at 10 to 30 uM pre-infected with virus for 48 hrs followed by compound addition and measured after 6 hrs by flow cytometry analysis", "type": "functional, organism-based", "conditions": "dose 10-30 µM"}, "[23]": {"test_system": "CT26", "assay": "Antitumor activity against mouse CT26 cells […] mouse assessed as augmentation of CD8+ T cells in spleen at 10 mg/kg, ip administered every 2 days (reference value: 6.99%)", "type": "functional"}, "[24]": {"test_system": "CT26", "assay": "Antitumor activity against mouse CT26 cells allografted in ip dosed […] mouse assessed as reduction in tumor growth administered every 2 days", "type": "functional, organism-based", "conditions": "dose 5-20 mg/kg"}, "[25]": {"test_system": "Human alphaherpesvirus 1", "assay": "Antiviral activity against HSV-1-GFP infected in mouse MC38 cells assessed as reduction in viral infection by fluorescent microscopy analysis", "type": "functional, organism-based"}, "[26]": {"test_system": "THP1-Dual KO-STING", "assay": "Upregulation of interferon production in human THP1-Dual KO-STING cells by dual-luciferase reporter assay", "type": "functional, cell-based"}, "[27]": {"target": "Stimulator of interferon genes protein (Homo sapiens) (UniProt Q86WV6)", "assay": "Agonist activity at STING in human THP-1 cells assessed as increase in STING oligomerization by Western blotting analysis", "type": "cell-based", "conditions": "filed as agonist, dose 5-40 µM"}, "[28]": {"test_system": "CT26", "assay": "Antitumor activity against mouse CT26 cells […] mouse assessed as augmentation of CD45+ cells in spleen at 10 mg/kg, ip administered every 2 days (reference value: 35.1%)", "type": "functional"}, "[29]": {"test_system": "MC-38", "assay": "Antitumor activity against mouse MC38 cells allografted in C57/BL6 mouse assessed as increase in IL-6 level in serum at 300 ug, IT administered every 2 days by ELISA", "type": "functional, cell-based", "conditions": "dose 300.0 µg"}, "[30]": {"test_system": "MC-38", "assay": "Antitumor activity against mouse MC38 cells allografted in C57/BL6 mouse assessed as increase in CD3+ T cells in spleen at 300 ug, IT administered every 2 days by flow cytometry analysis", "type": "functional, cell-based", "conditions": "dose 300.0 µg"}}, "note": "Calls of active or inactive are those of the source. The calls are words filed in the database; no cut-off is given here."}
{"molecule": "CC(NCCC(c1ccccc1)c1ccccc1)c1ccccc1", "note": "(stereo not given) [FENDILINE]", "values": [{"measurement": "Activity", "setting": "[1]", "result": "inactive"}, {"measurement": "Activity", "setting": "[2]", "result": "Active"}, {"measurement": "Activity", "setting": "[3]", "result": 14.7, "unit": "%"}, {"measurement": "Activity", "setting": "[4]", "result": 20.3, "unit": "%"}, {"measurement": "Activity", "setting": "[5]", "result": 28.6, "unit": "%"}, {"measurement": "Activity", "setting": "[6]", "result": "Active"}, {"measurement": "Activity", "setting": "[7]", "result": "Active"}, {"measurement": "Activity", "setting": "[8]", "result": "inactive"}, {"measurement": "Activity", "setting": "[9]", "result": "Dose-Dependent Effect"}, {"measurement": "Activity", "setting": "[10]", "result": "Active"}, {"measurement": "Activity", "setting": "[11]", "result": "Active"}, {"measurement": "Activity", "setting": "[12]", "result": "Non-Toxic"}, {"measurement": "Activity", "setting": "[13]", "result": "Active"}, {"measurement": "Activity", "setting": "[14]", "result": 12.7, "unit": "%"}, {"measurement": "Activity", "setting": "[15]", "result": "Active"}, {"measurement": "Activity", "setting": "[16]", "result": "Active"}, {"measurement": "Activity", "setting": "[17]", "result": "Active"}, {"measurement": "Activity", "setting": "[18]", "result": "Active"}, {"measurement": "Activity", "setting": "[19]", "result": "Active"}, {"measurement": "Activity", "setting": "[20]", "result": 76.1, "unit": "%"}, {"measurement": "Activity", "setting": "[21]", "result": 41.4, "unit": "%"}, {"measurement": "Activity", "setting": "[22]", "result": "Active"}, {"measurement": "Activity", "setting": "[23]", "result": 15.1, "unit": "%"}, {"measurement": "Activity", "setting": "[24]", "result": "Dose-Dependent Effect"}, {"measurement": "Activity", "setting": "[25]", "result": "Active"}, {"measurement": "Activity", "setting": "[26]", "result": "inactive"}, {"measurement": "Activity", "setting": "[27]", "result": "Dose-Dependent Effect"}, {"measurement": "Activity", "setting": "[28]", "result": 56.3, "unit": "%"}, {"measurement": "Activity", "setting": "[29]", "result": "Active"}, {"measurement": "Activity", "setting": "[30]", "result": "Active"}]}
